Laboratory results reported in patent US11542262B2, “Phosphatidylinositol 3-kinase inhibitors” (NANJING ZHENGXIANG PHARMACEUTICALS CO., LTD., priority 2019, dated 2023).
Converted amounts (≈) assume the structure as drawn.

Tests used:
[1] = molecular target: PI3Kγ (Homo sapiens, UniProt P48736); experiment: ADP-Glo luminescent assay, enzymatic activity of PI3K gamma; format: biochemical; details: ATP 25 μM; read-out: PI3K gamma (nM) inhibitory activity (IC50)
Procedure: The compounds would be tested from 1 or 10 μM, 3-fold dilution for 10 doses, in duplicate.
(§1) Compound preparation: Dilute a compound to 100× of the final desired highest inhibitor concentration in reaction by 100% DMSO. Transfer 100 μl of this compound dilution to a well in a 96-well plate and serially dilute it with DMSO for a total of 10 concentrations.
Kinase reaction: Prepare a solution of PI3K in 1× kinase buffer at 2-fold the final concentration of each reagent in the assay. Control wells contain 1× kinase buffer without enzyme. Prepare substrate solution of PIP2 substrate and ATP in 1× kinase reaction buffer at 2-fold of the final concentration. Add concentration substrate solution to each well to the final concentration. Cover the assay plate, shake to mix, and incubate at room temperature for 1 hour. Add 5 μl of ADP-Glo reagent to each well to stop the reaction. […] Add 10 ul Kinase Detection Reagent to each well, shake 1 min, equilibrate for 30 min before reading on a luminescence plate reader.
(§2) Data Analysis: Convert RLU values to percent inhibition values as Percent inhibition=(max−sample RLU)/(max−min)*100. “min”—no enzyme control; “max”—DMSO control. Fit the data in XLFit excel add-in version 5.4.0.8 to obtain IC50 values. Y=Bottom+(Top−Bottom)/(1+(IC50/X)^HillSlope).

[2] = molecular target: PI3Kδ (Homo sapiens, UniProt O00329); experiment: ADP-Glo luminescent assay, enzymatic activity of PI3K delta; format: biochemical; details: ATP 25 μM; read-out: PI3K delta (nM) inhibitory activity (IC50)
Procedure: Enzymatic activity of PI3K isoforms: Enzymatic activity of the class I PI3K isoforms in the presence of the compounds of Table 1 was measured using ADP-Glo luminescent assay against PI3Kα, PI3Kβ, PI3Kδ and PI3Kγ with ATP concentration at 25 μM. […] The compounds would be tested from 1 or 10 μM, 3-fold dilution for 10 doses, in duplicate.
as §1
(§3) Kinase reaction: Prepare a solution of PI3K in 1× kinase buffer at 2-fold the final concentration of each reagent in the assay. Control wells contain 1× kinase buffer without enzyme. Prepare substrate solution of PIP2 substrate and ATP in 1× kinase reaction buffer at 2-fold of the final concentration. Add concentration substrate solution to each well to the final concentration. Cover the assay plate, shake to mix, and incubate at room temperature for 1 hour. Add 5 μl of ADP-Glo reagent to each well to stop the reaction. Mix briefly with a quick spin, shake slowly on the shaker for 120 min. Add 10 ul Kinase Detection Reagent to each well, shake 1 min, equilibrate for 30 min before reading on a luminescence plate reader.
as §2

[3] = molecular target: PI3Kα (Homo sapiens, UniProt P42336); experiment: ADP-Glo luminescent assay, enzymatic activity of PI3K alpha; format: biochemical; details: ATP 25 μM; read-out: PI3K alpha (nM) inhibitory activity (IC50)
Procedure: (§4) Enzymatic activity of PI3K isoforms: Enzymatic activity of the class I PI3K isoforms in the presence of the compounds of Table 1 was measured using ADP-Glo luminescent assay against PI3Kα, PI3Kβ, PI3Kδ and PI3Kγ with ATP concentration at 25 μM. IPI-549 was used as the reference compound. The compounds would be tested from 1 or 10 μM, 3-fold dilution for 10 doses, in duplicate.
as §1, §3, §2

[4] = molecular target: PI3Kβ (Homo sapiens, UniProt P42338); experiment: ADP-Glo luminescent assay, enzymatic activity of PI3K beta; format: biochemical; details: ATP 25 μM; read-out: PI3K beta (nM) inhibitory activity (IC50)
Procedure: as §4, §1, §3, §2

[5] = Kinetic solubility test in PBS pH7.4; format: physicochemical; details: aqueous buffer, kinetic from dmso stock; PBS pH 7.4, 25° C., 2 hours
Procedure: 15 μL of stock solution (10 mM) was placed in order into their proper 96-well rack. 485 μL of PBS pH7.4 was added into each vial of the cap-less Solubility Sample plate. The assay was performed in singlet. Add one stir stick to each vial and seal using a molded PTFE/Silicone plug. […] After completion of the 2 hours, the samples from the Solubility Sample plate were transferred into the filter plate. all the samples were filtered using the Vacuum Manifold. Aliquot of 5 μL was taken from the filtrate followed by addition of 495 μL of a mixture of H2O and acetonitrile containing internal standard (1:1). A certain proportion of ultrapure water was used to dilute the diluent according to the peak shape. The dilution factor was changed according to the solubility values and the LC-MS signal response.
Preparation of 3 μM standards (STD): From the 10 mM DMSO STD plate, 6 μL was transferred into the remaining empty plate, and then 194 μL of DMSO was added to that plate to have a STD concentration of 300 μM. From the 300 μM DMSO STD plate, 5 μL was transferred into the remaining empty plate, and then 495 μL of a mixture of H2O and acetonitrile containing internal standard (1:1) was added to that plate to have a final STD concentration of 3 μM. A certain proportion of ultrapure water was used to dilute the diluent according to the peak shape. The concentrations of the standard samples were changed according to the LC-MS signal response.
Procedure for sample analysis: The plate was placed into the well plate autosampler. The samples were evaluated by LC-MS/MS analysis.
Data analysis: All calculations were carried out using Microsoft Excel.
The filtrate was analyzed and quantified against a standard of known concentration using LC coupled with mass spectral peak identification and quantitation. Solubility values of the test compound and control compound were calculated as follows:
[formula] • Any value of the compounds that was not within the specified limits was rejected and the experiment was repeated.

[6] = molecular target: T1, PI3K gamma (Mus musculus, UniProt Q9JHG7); experiment: Raw264.7 cell assay: phosphorylation of AKT in C5a stimulated RAW264.7 cells (AlphaLISA); format: cell-based; details: pAKT, read-out: PI3K gamma Raw264.7 cell (nM) cellular activity (IC50)
T1 construct: endogenous in cells; host or cells: RAW264.7
Procedure: (§5) This study aims to determine the inhibitory effect of compounds on PI3K gamma and PI3K delta in corresponding cell based assays. PI3K gamma activity was reflected by phosphorylation of AKT in C5a stimulated RAW264.7 cells, and PI3K delta activity was reflected by phosphorylation of AKT in anti-IgM stimulated Raji cells. Phosphorylation of AKT in cells was determined using AlphaLISA technology from PerkinElmer.
Raw264.7 cell assay: Prepare Passage 15 Raw264.7 cell and add 6 μL of 30K cells per well in 384-well plate by multidrop. Centrifuge at 500 RPM for 30 s and incubate for 2 hours at 37° C., 5% CO2. Add 30 nL compound by echo and incubate for 30 min at 37° C., 5% CO2. […] Add 2 μL of 5× lysis buffer by multidrop, incubate for 10 min on a plate shaker. Add 5 μL acceptor mix provided in the kit, centrifuge at 1000 RPM for 1 min. Add 5 μL donor mix provided in the kit, centrifuge at 1000 RPM for 1 min and incubate in dark for 2 hours at 25° C. Read AlphaLISA signal on Envision.
Y=Bottom+(Top−Bottom)/(1+10^((Log IC50−X)*Hill Slope)) X: Log of cpd concentration Y: Inhibition

[7] = molecular target: T2, PI3K delta (Homo sapiens, UniProt O00329); experiment: Raji cell assay: phosphorylation of AKT in anti-IgM stimulated Raji cells (AlphaLISA); format: cell-based; details: pAKT, read-out: PI3K delta Raji cell (nM) cellular activity (IC50)
T2 construct: endogenous in cells; host or cells: Raji
Procedure: as §5
Raji cell assay: Prepare Passage 11 Raji cell and add 6 μL of 60K cells per well in 384-well plate. Centrifuge at 500 RPM for 30 s and incubate for 2 hours at 37° C., 5% CO2. Add 30 nL compound by Echo and incubate for 30 min at 37° C. Add 2 μL of IgM (4×, 12 μg/mL) per well, centrifuge at 500 RPM for 30 s and incubate for 10 min at 37° C. Add 2 μL of 5× lysis buffer by Multidrop. Shake 10 min on a plate shaker. Add 5 μL acceptor mix provided in the kit. Centrifuge at 1000 RPM for 1 min. Add 5 μL donor mix provided in the kit. Centrifuge at 1000 RPM for 1 min. Then incubate for 2 hours at 25° C., keep the plate in dark. Read AlphaLISA signal on Envision.
Data analysis: Fit the cpd IC50 from non-linear regression equation. Y=Bottom+(Top−Bottom)/(1+10^((Log IC50−X)*Hill Slope)) X: Log of cpd concentration Y: Inhibition

[8] = dogs, reported by Pemberton et al, J Med Chem 2018; cited from earlier work

Chain of PI3Kβ (P42338 whole entry, species assumed): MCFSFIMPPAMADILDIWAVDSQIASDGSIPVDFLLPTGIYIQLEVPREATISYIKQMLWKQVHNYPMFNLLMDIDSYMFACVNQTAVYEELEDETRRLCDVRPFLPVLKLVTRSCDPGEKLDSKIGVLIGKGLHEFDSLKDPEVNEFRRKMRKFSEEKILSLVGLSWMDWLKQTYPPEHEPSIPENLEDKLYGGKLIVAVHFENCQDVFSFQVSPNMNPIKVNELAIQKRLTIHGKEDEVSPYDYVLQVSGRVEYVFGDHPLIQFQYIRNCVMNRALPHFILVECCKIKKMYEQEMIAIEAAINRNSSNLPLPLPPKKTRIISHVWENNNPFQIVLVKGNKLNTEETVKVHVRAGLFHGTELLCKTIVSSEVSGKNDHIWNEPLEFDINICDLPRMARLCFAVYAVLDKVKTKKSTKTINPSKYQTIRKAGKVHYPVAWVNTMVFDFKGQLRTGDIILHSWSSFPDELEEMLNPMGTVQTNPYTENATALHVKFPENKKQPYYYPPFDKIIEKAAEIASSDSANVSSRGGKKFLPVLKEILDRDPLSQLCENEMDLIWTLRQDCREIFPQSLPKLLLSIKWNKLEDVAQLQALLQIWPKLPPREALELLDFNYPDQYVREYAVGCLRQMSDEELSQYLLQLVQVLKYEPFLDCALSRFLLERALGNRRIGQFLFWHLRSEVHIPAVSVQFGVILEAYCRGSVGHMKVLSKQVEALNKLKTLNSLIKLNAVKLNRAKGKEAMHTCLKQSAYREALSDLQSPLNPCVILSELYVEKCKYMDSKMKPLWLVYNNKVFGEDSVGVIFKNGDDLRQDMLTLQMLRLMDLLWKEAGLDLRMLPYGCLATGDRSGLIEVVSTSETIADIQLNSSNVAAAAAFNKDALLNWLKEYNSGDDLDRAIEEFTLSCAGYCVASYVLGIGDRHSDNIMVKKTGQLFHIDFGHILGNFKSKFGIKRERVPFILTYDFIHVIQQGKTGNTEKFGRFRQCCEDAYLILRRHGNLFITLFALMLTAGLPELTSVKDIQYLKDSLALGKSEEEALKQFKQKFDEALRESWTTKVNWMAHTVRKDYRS
Chain of PI3Kβ (P27986 whole entry partner, species assumed): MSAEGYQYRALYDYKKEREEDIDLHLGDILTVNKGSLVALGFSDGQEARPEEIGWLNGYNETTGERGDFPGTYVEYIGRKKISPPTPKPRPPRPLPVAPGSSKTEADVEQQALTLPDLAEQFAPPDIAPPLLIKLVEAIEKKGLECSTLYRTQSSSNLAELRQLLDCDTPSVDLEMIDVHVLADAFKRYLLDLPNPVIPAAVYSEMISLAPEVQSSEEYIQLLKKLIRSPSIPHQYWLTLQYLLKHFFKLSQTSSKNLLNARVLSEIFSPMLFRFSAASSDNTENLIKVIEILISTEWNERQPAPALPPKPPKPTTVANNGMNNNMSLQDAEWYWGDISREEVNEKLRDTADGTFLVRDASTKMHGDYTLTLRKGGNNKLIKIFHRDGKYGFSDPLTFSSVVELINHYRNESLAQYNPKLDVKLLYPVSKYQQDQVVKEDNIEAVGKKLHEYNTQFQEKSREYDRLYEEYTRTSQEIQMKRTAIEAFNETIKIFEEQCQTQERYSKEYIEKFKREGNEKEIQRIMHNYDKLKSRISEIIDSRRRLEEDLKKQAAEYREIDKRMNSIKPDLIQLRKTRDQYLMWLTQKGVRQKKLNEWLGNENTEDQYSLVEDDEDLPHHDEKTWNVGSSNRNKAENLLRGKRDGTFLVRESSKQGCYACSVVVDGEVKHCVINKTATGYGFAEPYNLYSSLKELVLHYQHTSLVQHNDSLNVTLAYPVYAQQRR
Chain of PI3Kα (P42336 whole entry, species assumed, canonical isoform): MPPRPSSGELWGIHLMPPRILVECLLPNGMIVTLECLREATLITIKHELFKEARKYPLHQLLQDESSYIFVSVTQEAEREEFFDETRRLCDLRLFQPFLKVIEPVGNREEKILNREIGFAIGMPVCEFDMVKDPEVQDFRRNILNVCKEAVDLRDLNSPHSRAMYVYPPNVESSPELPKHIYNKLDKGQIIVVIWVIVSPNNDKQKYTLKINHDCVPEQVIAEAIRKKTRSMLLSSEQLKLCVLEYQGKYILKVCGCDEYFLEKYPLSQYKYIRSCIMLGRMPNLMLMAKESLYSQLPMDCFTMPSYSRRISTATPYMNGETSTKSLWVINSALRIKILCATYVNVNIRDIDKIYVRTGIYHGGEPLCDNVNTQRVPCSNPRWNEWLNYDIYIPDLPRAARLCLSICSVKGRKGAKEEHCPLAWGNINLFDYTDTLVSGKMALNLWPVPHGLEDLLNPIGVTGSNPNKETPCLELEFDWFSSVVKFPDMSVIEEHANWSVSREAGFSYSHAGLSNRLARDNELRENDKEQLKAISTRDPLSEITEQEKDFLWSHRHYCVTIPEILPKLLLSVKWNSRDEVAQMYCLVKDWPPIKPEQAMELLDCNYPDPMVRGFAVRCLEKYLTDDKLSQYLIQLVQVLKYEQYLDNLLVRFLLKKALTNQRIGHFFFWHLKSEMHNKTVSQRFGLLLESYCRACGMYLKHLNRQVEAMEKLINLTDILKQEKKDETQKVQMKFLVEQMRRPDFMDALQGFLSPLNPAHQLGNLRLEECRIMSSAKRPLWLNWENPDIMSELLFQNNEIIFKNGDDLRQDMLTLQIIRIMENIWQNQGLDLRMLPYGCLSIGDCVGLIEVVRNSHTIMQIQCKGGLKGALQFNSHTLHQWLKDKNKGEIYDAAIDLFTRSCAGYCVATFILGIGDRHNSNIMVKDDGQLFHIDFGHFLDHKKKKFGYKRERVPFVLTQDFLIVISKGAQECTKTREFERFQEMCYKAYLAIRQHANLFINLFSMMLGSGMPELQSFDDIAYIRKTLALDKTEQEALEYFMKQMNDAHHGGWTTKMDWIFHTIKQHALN
Chain of PI3Kα (P27986 whole entry partner, species assumed, canonical isoform): as the sequence (P27986 whole entry partner, species assumed) above
Chain of PI3Kγ (P48736 whole entry, species assumed): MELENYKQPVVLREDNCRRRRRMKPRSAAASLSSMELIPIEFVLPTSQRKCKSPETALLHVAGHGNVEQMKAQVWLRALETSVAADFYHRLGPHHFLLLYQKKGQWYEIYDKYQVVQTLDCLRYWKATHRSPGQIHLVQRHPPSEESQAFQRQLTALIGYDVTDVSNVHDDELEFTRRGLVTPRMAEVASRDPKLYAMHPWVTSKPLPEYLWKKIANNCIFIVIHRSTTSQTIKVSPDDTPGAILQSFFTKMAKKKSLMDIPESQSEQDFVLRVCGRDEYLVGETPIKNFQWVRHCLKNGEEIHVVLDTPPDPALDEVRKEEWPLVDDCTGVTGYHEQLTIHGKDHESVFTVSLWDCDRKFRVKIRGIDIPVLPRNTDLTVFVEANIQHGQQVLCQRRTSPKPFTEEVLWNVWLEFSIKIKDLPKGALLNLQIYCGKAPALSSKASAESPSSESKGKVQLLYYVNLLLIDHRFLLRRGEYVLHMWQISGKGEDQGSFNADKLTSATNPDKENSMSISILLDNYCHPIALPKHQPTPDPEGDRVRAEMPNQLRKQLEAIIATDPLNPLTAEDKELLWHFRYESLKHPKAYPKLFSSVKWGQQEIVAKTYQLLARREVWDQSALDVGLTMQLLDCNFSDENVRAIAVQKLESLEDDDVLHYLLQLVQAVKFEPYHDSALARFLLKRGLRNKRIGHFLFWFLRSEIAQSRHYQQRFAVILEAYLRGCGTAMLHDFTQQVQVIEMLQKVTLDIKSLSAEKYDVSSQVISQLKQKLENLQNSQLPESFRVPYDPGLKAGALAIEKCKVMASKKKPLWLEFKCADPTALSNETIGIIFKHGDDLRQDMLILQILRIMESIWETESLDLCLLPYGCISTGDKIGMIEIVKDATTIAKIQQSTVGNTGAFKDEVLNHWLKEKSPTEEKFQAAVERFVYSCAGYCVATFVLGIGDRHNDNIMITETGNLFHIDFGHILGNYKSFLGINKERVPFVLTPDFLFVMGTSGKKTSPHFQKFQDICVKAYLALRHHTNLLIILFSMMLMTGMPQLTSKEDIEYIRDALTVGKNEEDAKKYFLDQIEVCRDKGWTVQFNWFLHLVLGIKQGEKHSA
T2 sequence (O00329 whole entry): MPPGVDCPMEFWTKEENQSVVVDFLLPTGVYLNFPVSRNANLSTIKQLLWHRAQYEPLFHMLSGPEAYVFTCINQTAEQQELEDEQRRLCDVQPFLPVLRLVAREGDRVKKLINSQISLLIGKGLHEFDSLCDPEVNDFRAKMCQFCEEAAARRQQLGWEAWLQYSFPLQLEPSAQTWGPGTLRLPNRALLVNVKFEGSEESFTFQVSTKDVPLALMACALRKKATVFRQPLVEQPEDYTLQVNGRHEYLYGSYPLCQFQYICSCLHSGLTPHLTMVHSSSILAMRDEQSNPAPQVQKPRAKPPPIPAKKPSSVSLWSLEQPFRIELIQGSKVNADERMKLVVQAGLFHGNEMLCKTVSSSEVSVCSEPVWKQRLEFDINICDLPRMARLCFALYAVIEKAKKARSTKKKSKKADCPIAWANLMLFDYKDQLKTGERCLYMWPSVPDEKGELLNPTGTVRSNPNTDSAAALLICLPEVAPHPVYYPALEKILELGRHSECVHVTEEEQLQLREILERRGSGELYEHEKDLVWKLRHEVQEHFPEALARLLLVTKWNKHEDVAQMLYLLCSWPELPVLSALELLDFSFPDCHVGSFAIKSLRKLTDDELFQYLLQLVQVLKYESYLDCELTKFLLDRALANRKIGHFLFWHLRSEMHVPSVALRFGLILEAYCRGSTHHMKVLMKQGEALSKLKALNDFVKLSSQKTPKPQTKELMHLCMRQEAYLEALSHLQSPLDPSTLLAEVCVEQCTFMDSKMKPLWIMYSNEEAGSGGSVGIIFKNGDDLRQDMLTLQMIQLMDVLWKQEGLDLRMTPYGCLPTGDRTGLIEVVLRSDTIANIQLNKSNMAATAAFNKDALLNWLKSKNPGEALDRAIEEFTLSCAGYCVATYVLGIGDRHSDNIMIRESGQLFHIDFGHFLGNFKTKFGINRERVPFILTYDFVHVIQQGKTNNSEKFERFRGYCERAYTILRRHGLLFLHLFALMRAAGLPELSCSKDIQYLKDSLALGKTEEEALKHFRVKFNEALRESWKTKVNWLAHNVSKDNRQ
T2 sequence (P27986 whole entry partner): as the sequence (P27986 whole entry partner, species assumed) above

IC50 [1] [nM] | IC50 [2] [nM] | IC50 [3] [nM] | IC50 [4] [nM] | solubility at 2 h [5] [µM] | IC50 [6] [nM] | IC50 [7] [nM] | SMILES | Vssobs [8] [L/kg]
1.9 | 1550 | 8420 | > 10000 | 2.3 (≈ 1.13 µg/mL) | 9.3 | – | CC(=O)Nc1nc(C)c(-c2cc3c(c(N4CCS(=O)(=O)CC4)n2)C(=O)N([C@@H](C)C2CC2)C3)s1 [Compound 38, (S)-N-(5-(2-(1-cyclopropylethyl)-4-(1,1-dioxidothiomorpholino)-3-oxo-2,3-dihydro-M-pyrrolo[3,4-c]pyridin-6-yl)-4-methylthiazol-2-yl)acetamide] | –
1.7 | > 1000 | – | – | 3.5 (≈ 1.35 µg/mL) | 2.5 | 2280 | COc1nc(-c2sc(NC(C)=O)nc2C)cc2c1C(=O)N([C@@H](C)C1CC1)C2 [Compound 22, (S)-N-(5-(2-(1-cyclopropylethyl)-4-methoxy-3-oxo-2,3-dihydro-1H-pyrrolo[3,4-c]pyridin-6-yl)-4-methylthiazol-2-yl)acetamide] | –
1.4 | > 1000 | – | – | – | 315 | > 1000 | CC(=O)Nc1nc(C)c(-c2cc3c(c(P(C)(C)=O)c2)C(=O)N([C@@H](C)C2CC2)C3)s1 [Compound 1, (S)-N-(5-(2-(1-cyclopropylethyl)-7-(dimethylphosphoryl)-1-oxoisoindolin-5-yl)-4-methylthiazol-2-yl)acetamide] | –
– | 1330 | 4140 | > 10000 | 23 (≈ 10.2 µg/mL) | 3.2 | – | CC(=O)Nc1nc(C)c(-c2cc3c(c(N4CCOCC4)n2)C(=O)N([C@H](C)C2CC2)C3)s1 [Compound 35, (R)-N-(5-(2-(1-cyclopropylethyl)-4-morpholino-3-oxo-2,3-dihydro-1H-pyrrolo[3,4-c]pyridin-6-yl)-4-methylthiazol-2-yl)acetamide] | –
2.4 | 1250 | – | – | 32 (≈ 15 µg/mL) | 3.3 | – | CC(=O)Nc1nc(C)c(-c2cc3c(c(N4CCOCC4)n2)C(=O)N(C(C)C(F)(F)F)C3)s1 (stereo in doubt) [Compound 36, (R)-N-(4-methyl-5-(4-morpholino-3-oxo-2-(1,1,1-trifluoropropan-2-yl)-2,3-dihydro-1H-pyrrolo[3,4-c]pyridin-6-yl)thiazol-2-yl)acetamide] | –

The next lines start with the compound.

SMILES | IC50 [1] [nM] | IC50 [2] [nM] | IC50 [3] [nM] | IC50 [4] [nM] | solubility at 2 h [5] [µM] | IC50 [6] [nM] | IC50 [7] [nM] | Vssobs [8] [L/kg]
CC(=O)Nc1nc(C)c(-c2cc3c(c(NS(=O)(=O)C4CC4)n2)C(=O)N([C@@H](C)C2CC2)C3)s1 [Compound 24, (S)-N-(5-(4-(cyclopropanesulfonamido)-2-(1-cyclopropylethyl)-3-oxo-2,3-dihydro-1H-pyrrolo[3,4-c]pyridin-6-yl)-4-methylthiazol-2-yl)acetamide] | 1.5 | 794 | – | – | 83 (≈ 39.5 µg/mL) | 2.2 | 1420 | –
CC(=O)Nc1nc(C)c(-c2cc3c(c(NS(C)(=O)=O)c2)C(=O)N([C@@H](C)C2CC2)C3)s1 [AZ-17] | – | – | – | – | – | – | – | 0.7
CC(=O)Nc1nc(C)c(-c2cc3c(c([S@](C)(=N)=O)c2)C(=O)N([C@@H](C)C2CC2)C3)s1 (racemic) [Compound 15, N-(5-(2-((S)-1-cyclopropylethyl)-7-(S-methylsulfonimidoyl)-1-oxoisoindolin-5-yl)-4-methylthiazol-2-yl)acetamide] | 1.9 | 784 | – | – | 245 (≈ 106 µg/mL) | 130 | – | –
CC(=O)Nc1nc(C)c(-c2cc3c(c([S@@+](C)[O-])c2)C(=O)N([C@@H](C)C2CC2)C3)s1 (racemic) [Compound 12, N-(5-(2-((S)-1-cyclopropylethyl)-7-(methylsulfinyl)-1-oxoisoindolin-5-yl)-4-methylthiazol-2-yl)acetamide] | 1.7 | 2080 | – | – | 211 (≈ 88.1 µg/mL) | 30 | – | –
CCS(=O)(=O)Nc1nc(-c2sc(NC(C)=O)nc2C)cc2c1C(=O)N([C@@H](C)C1CC1)C2 [Compound 23, (S)-N-(5-(2-(1-cyclopropylethyl)-4-(ethylsulfonamido)-3-oxo-2,3-dihydro-1H-pyrrolo[3,4-c]pyridin-6-yl)-4-methylthiazol-2-yl)acetamide] | 1 | 1210 | 3330 | > 10000 | 202 (≈ 93.6 µg/mL) | 2 | 1510 | –
